Test results published in patent publication US11124476B2, “Tunable nitric oxide-releasing macromolecules having multiple nitric oxide donor structures” (The University of North Carolina at Chapel Hill, priority 2011, dated 2021).

Assay: NO release from NO-releasing co-condensed silica, Nitric Oxide Analyzer, physiological condition
Format: physicochemical
Description: A variety of single and multi-donor co-condensed silica macromolecules were synthesized. […] FIGS. 8A and 8B illustrate the same release profiles with normalized maximum NO concentration. FIG. 8B illustrates the same release profiles, with normalized maximum NO concentration, as FIG. 8A, but is an expanded view of the release profiles. All release profiles were collected with a Nitric Oxide Analyzer under physiological condition at pH=7.4 and 37° C.
To make NO-releasing co-condensed silica with programmed release profile, the different silane diazeniumdiolate monomer solutions were mixed at the pre-set ratios. The mixture is then added into a flask with pre-cooled ethanol with nitrogen protection. The mixture is further cooled to −15° C. and pre-set amount of backbone silane (TEOS or TMOS) is added. When the mixture temperature equilibriums to −15° C., the ammonium hydroxide aqueous solution is added. The reaction is then warmed rapidly to 15° and stirred for additional 3 hours. The content is then filtered. The solid is washed with dry ethanol twice and then dried extensively.

## CCCCCCCCCCCCNCCCCCCN(CCCCCCCCCCCC)/[N+]([O-])=N/O [MAP3 diazeniumdiolate]
  duration of NO release: only a few minutes
